Reference: ChEMBL document CHEMBL4725417, “Membrane Permeable, Bioreversibly Modified Prodrugs of Nucleoside Diphosphate-γ-Phosphonates” (J Med Chem, 2020)
Activity calls are given as the source filed them. No cut-off for these calls is given here.

Columns and labels:
[1] = test system: Human immunodeficiency virus 2; test: Antiviral activity against HIV2 ROD infected in human TK-deficient CEM/TK- T-cells assessed as reduction in virus-induced cytopathogenicity by measuring syncytia cell formation incubated for 4 to 5 days by microscopy; conditions: Human immunodeficiency virus 2, ISOLATE ROD
[2] = Half life in pH 7.3 PBS buffer at 1.4 mM by HPLC analysis; assay type: physicochemical
[3] = Cytotoxicity in human CEM cells assessed as reduction in cell proliferation; assay type: cell-based; conditions: CEM cells (CCRF-CEM)
[4] = Half life assessed as pig liver esterase-mediated compound hydrolysis at 6 mM by HPLC analysis; assay type: ADME, Sus scrofa
[5] = Half life in human CEM/0 cell extracts at 6 mM by HPLC analysis; assay type: ADME, tissue-based, CCRF-CEM
[6] = test system: Human immunodeficiency virus 2; test: Antiviral activity against HIV2 ROD infected in human CEM/0 CD4+ T cells assessed as reduction in virus-induced cytopathogenicity by measuring syncytia cell formation incubated for 4 to 5 days by microscopy; conditions: Human immunodeficiency virus 2, ISOLATE ROD, CCRF-CEM
[7] = test system: Human immunodeficiency virus 1; test: Antiviral activity against HIV1 3B infected in human CEM/0 CD4+ T cells assessed as reduction in virus-induced cytopathogenicity by measuring syncytia cell formation incubated for 4 to 5 days by microscopy; assay type: functional, organism-based; conditions: Human immunodeficiency virus 1, 3B, CCRF-CEM
Homo sapiens = organism: Homo sapiens; test: Substrate activity at human DNA polymerase gamma incubated at 37 degC for 60 mins and at 80 degC for 7 mins by primer extension assay; conditions: time 67.0 min
[8] = target: DNA polymerase beta (Homo sapiens) (UniProt P06746); test: Substrate activity at human DNA polymerase beta incubated at 37 degC for 60 mins and at 80 degC for 7 mins by primer extension assay; conditions: time 67.0 min
[9] = target: Human immunodeficiency virus type 1 reverse transcriptase (Human immunodeficiency virus 1) (UniProt Q72547); test: Substrate activity at HIV1 reverse transcriptase incubated at 37 degC for 30 mins and at 80 degC for 7 mins by primer extension assay; conditions: time 37.0 min
[10] = target: T1, DNA polymerase alpha catalytic subunit (Homo sapiens) (UniProt P09884); test: Substrate activity at human DNA polymerase alpha incubated at 37 degC for 60 mins and at 80 degC for 7 mins by primer extension assay; conditions: time 67.0 min
T1 sequence (whole entry): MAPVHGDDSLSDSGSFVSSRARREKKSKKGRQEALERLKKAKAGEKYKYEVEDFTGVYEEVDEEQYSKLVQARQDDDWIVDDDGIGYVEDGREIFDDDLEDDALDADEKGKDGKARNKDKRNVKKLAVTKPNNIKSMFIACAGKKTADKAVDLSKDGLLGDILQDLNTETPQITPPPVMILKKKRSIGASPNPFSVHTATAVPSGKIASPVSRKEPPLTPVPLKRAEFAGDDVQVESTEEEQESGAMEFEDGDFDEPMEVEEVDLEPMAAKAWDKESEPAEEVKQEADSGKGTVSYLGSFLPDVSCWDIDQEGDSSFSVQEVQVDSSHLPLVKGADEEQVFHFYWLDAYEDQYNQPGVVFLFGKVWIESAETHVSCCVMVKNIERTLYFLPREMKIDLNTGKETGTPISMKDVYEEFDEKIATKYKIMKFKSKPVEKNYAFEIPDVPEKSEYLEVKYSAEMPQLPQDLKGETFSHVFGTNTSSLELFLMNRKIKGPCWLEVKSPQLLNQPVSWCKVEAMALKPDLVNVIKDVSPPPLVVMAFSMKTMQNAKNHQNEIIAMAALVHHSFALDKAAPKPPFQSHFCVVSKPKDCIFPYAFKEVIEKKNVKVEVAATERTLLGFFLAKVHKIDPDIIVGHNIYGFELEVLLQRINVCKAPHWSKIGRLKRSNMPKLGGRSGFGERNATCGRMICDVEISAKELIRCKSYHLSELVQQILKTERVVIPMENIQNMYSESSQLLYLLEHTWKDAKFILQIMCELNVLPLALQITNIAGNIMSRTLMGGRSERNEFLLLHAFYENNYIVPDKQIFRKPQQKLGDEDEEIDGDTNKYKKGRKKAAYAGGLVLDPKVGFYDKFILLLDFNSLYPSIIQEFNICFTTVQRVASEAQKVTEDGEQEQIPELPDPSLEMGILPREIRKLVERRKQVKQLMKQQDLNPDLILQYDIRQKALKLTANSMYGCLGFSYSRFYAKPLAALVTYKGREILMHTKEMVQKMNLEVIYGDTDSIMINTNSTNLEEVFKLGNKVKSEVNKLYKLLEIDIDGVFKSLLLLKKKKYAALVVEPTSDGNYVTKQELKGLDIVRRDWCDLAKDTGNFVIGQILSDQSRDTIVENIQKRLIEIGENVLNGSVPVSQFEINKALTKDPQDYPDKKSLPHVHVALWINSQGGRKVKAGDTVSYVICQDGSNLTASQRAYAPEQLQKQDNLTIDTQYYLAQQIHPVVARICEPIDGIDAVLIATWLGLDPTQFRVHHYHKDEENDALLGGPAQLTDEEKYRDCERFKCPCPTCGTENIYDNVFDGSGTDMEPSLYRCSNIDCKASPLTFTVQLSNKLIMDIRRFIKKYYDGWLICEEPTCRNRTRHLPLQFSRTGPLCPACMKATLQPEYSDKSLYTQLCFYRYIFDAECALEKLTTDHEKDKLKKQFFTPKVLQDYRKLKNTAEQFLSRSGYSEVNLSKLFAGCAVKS

Row | SMILES | EC50 [1] [nM] | half-life at 1400 µM [2] [days] | CC50 [3] [µM] | half-life at 6000 µM [4] [min] | half-life at 6000 µM [5] [min] | EC50 [6] [nM] | EC50 [7] [nM] | Activity (Homo sapiens) | Activity [8] | Activity [9] | Activity [10]
1 | CCCCCCCCCCCCP(=O)(OCc1ccc(OC(=O)OC)cc1)OP(=O)(O)OP(=O)(O)OC[C@@H]1C=C[C@H](n2cc(C)c(=O)[nH]c2=O)O1.N.N (some centres not stated) | 36800 | 5.12 | > 100 | 42 | 39 | 350 | 95 |  |  |  | 
2 | CCCCCCCCCCCCCCCCCCP(=O)(OCc1ccc(OC(=O)CCCC)cc1)OP(=O)(O)OP(=O)(O)OC[C@@H]1C=C[C@H](n2cc(C)c(=O)[nH]c2=O)O1.N.N (some centres not stated) | 42 | 26.9 | 19 | 120 | 402 | 21 | 7.4 |  |  |  | 
3 | CCCCCCCCCCCCCCP(=O)(OCc1ccc(OC(=O)CCCC)cc1)OP(=O)(O)OP(=O)(O)OC[C@@H]1C=C[C@H](n2cc(C)c(=O)[nH]c2=O)O1.N.N (some centres not stated) | 530 | 21.2 | 56 | 4.86 | 270 | 160 | 31 |  |  |  | 
4 | CCCCCCCCCCCCP(=O)(OCc1ccc(OC(=O)OCCCCCCCCCCC)cc1)OP(=O)(O)OP(=O)(O)OC[C@@H]1C=C[C@H](n2cc(C)c(=O)[nH]c2=O)O1.N.N (some centres not stated) | 320 | 47.9 | 39 | 636 | > 600 | 110 | 40 |  |  |  | 
5 | CCCCCCCCCCCCCCCCCCP(=O)(OCCC#N)OP(=O)(O)OP(=O)(O)OC[C@@H]1C=C[C@H](n2cc(C)c(=O)[nH]c2=O)O1.N.N (some centres not stated) | 140 | 20 | 38 | > 9000 | > 600 | 46 | 95 |  |  |  | 
6 | CCCCCCCCCCCCCCCCCCP(=O)(OCc1ccc(OC(=O)OCCCC)cc1)OP(=O)(O)OP(=O)(O)OC[C@@H]1C=C[C@H](n2cc(C)c(=O)[nH]c2=O)O1.N.N (some centres not stated) | 32 | 51.7 | 16 | 62.4 | > 600 | 26 | 1.8 |  |  |  | 
7 | CCCCCCCCCCCCCCCCCCP(=O)(O)OP(=O)(O)OP(=O)(O)OC[C@@H]1C=C[C@H](n2cc(C)c(=O)[nH]c2=O)O1.N.N.N | 1580 | 22.3 | 21 | > 4800 | > 1800 | 110 | 46 | inactive | inactive | inactive | inactive
8 | Cc1cn([C@H]2C=C[C@@H](CO)O2)c(=O)[nH]c1=O [STAVUDINE] |  |  | > 50 |  |  |  |  | inactive | Active |  | inactive
